Laboratory results: patent US10682409B2, “Therapeutic treatment” (priority 2012, dated 2020)

Key:
[1] = tested on: patient suffering from ADHD; assay: Example 1: patient suffering from ADHD treated with and without an appetite stimulant (appetite, blood glucose, attentiveness by CGI-S and CGI-I); assay type: in vivo, human
Description: A patient suffering from ADHD is prescribed and administered an amphetamine to treat ADHD. The patient takes the amphetamine once a day in the morning or afternoon. […] As a result, the glucose level measured in the blood increases as shown in FIG. 1 and the patient's attentiveness recovers as measured by CGI-S and CGI-I. By taking the appetite stimulant during the time when the patient was awake, the patient increased their caloric intake during times when the patient needed to maintain their attentiveness in order to have reasonable cognition and/or social behaviour.

[2] = tested on: patients suffering from ADHD; assay: Clinical Global Impression-Severity scale (CGI-S), Patients A-H; assay type: in vivo, human
Protocol: In an embodiment, attentiveness is measured using the Clinical Global Impression rating scales to measure symptom severity, treatment response and the efficacy of treatments in treatment studies of patients with mental disorders (Guy, W., 1976). In an embodiment, attentiveness is measure using the Clinical Global Impression-Severity scale (“CGI-S”). In an embodiment, CGI-S is a 7-point scale that requires the clinician to rate the severity of the patient's illness at the time of assessment, relative to the clinician's past experience with patients who have the same diagnosis. Considering total clinical experience, a patient is assessed on severity of mental illness at the time of rating 1, normal, not at all ill; 2, borderline mentally ill; 3, mildly ill; 4, moderately ill; 5, markedly ill; 6, severely ill; or 7, extremely ill. In an embodiment, attentiveness is measured using the Clinical Global Impression-Improvement scale (“CGI-I”). […] In an embodiment, attentiveness is measured using the Clinical Global Impression-Efficacy Index (“CGI-E”).
(§1) The age range of the patients was from 6-15 years of age, with a mean age at the start of treatment for ADHD of 8.4 years of age. The mean age at the start of the combination treatment wherein the patient was administered an amphetamine or methylphenidate and an appetite stimulant was 10.3 years of age. The mean treatment period for the eight patients was 1,108 days with a mean of 2.55 ADHD medication changes during the treatment period. Attentiveness in the eight patients was measured using CGI-S and CGI-I. Patients weight and height velocity were measured to identify a difference in weight and height gain prior to and after addition of an appetite stimulant to the treatment for ADHD. Weight velocity was calculated by taking three time points, time 0 upon initiation of medication to treat ADHD, time 1 addition of an appetite stimulant, time 2 the last data point after initiation of combination treatment. The formula to calculate weight velocity for stimulant alone is (weightT1−weight T0)/days from Time 0 to time 1. The formula to calculate weight velocity for combination treatment is (weightT2−weight T1)/days from time 1 to time 2.

[3] = Examples 3-11: weight and height (velocity, percentile curve, course) of ADHD Patients A-H; assay type: in vivo, human
Protocol: In an embodiment, a therapeutically effective amount of a therapeutic compound disclosed herein increases the weight or height of an individual is determined by an increase in the individual's weight or height velocity as compared to an individual nor receiving a therapeutic compound for appetite reduction. In an embodiment, weight and/or height velocity can be calculated by taking measurements of height and/or weight of an individual over a period of time and measuring an increase or decrease in an individual's height and/or weight over the period of time. In an embodiment, weight velocity is calculated by taking three time points, time 0 upon initiation of medication to treat ADHD, time 1 addition of an appetite stimulant, time 2 the last data point after initiation of combination treatment. In an embodiment, a formula to calculate weight and height velocity for stimulant alone is (weightT1−weight T0)/days from Time 0 to time 1. In an embodiment, a formula to calculate weight velocity for combination treatment is (weightT2−weight T1)/days from time 1 to time 2. In an embodiment, to evaluate whether weight velocity increased after addition of an appetite stimulant, the weight velocity of time 0 to time 1 is compared to the weight velocity from time 1 to time 2. In an embodiment, height velocity is calculated by taking three time points, time 0 upon initiation of medication to treat ADHD, time 1 addition of an appetite stimulant, time 2 the last data point after initiation of combination treatment. The formula to calculate height velocity for stimulant alone is (weightT1−weight T0)/days from Time 0 to time 1. The formula to calculate height velocity for combination treatment is (weightT2−weight T1)/days from time 1 to time 2. In an embodiment, to evaluate whether height velocity increased after addition of an appetite stimulant, the height velocity of time 0 to time 1 is compared to the height velocity from time 1 to time 2.
Eight patients, identified as patients A-H, that came in suffering from ADHD were treated for ADHD. […] Each patient was then prescribed an appetite simulant to be taken along with the amphetamine or methylphenidate. The patients' weight, height and attentiveness were then followed during the course of treatment.
as §1

[4] = cited from earlier work
[5] = cited from earlier work; remark: listed apart in the source
[6] = Patient A, Periactin 4 mg b.i.d. added to Concerta from day 661, FIG. 4
[7] = Patient G, Focalin XR 15 mg and Periactin 4 mg b.i.d. from day 546, FIG. 16

CN1CCC(=C2c3ccccc3C=Cc3ccccc32)CC1.Cl [Periactin, 4-(5H-dibenzo[a,d]cyclohepten-5-ylidene)-1-methylpiperidine hydrochloride]
attentiveness as measured by CGI-S and CGI-I ([1]; amphetamine and Cyproheptadine once a day): recovers
appetite ([1]; amphetamine and Cyproheptadine once a day in the morning or afternoon): resumes
glucose level measured in the blood ([1]; amphetamine and Cyproheptadine once a day, FIG. 1): increases
CGI-S score ([2]; Patient A, Periactin 4 mg b.i.d. added to Concerta, FIG. 5): 3
CGI-S score ([2]; Patient B, Focalin XR 15 mg and Periactin 4 mg b.i.d. (remained), FIG. 7): 3
CGI-S score ([2]; Patient B, Focalin XR raised to 30 mg at day 1279 with Periactin, FIG. 7): 2
CGI-S score ([2]; Patient C, Concerta 36 mg and Periactin 4 mg b.i.d., FIG. 9): 4
CGI-S score ([2]; Patient D, Concerta 18 mg and Periactin 2 mg in the morning, FIG. 11): 5
CGI-S score ([2]; Patient D, Concerta increased to 27 mg with Periactin, FIG. 11): 4
CGI-S score ([2]; Patient E, Focalin XR 20 mg and Periactin 4 mg in the morning): 4
CGI-S score ([2]; Patient E, Periactin dosed b.i.d. with Focalin XR): 3
CGI-S score ([2]; Patient G, Focalin XR 15 mg and Periactin 4 mg b.i.d., FIG. 17): 3
CGI-S score versus prior examination ([2]; Patient H, Vvyanase 40 mg and Periactin 2 mg b.i.d., day 200, FIG. 19): had not changed
lowering of the CGI-S of a patient by addition of the appetite stimulant ([2]; Patients A-H, versus same patient prior to appetite stimulant, FIG. 20, 21): ≥ 1
height course [3, 6]: increase in height began to accelerate
weight course [3, 6]: began to gain weight
weight course ([3]; Patient B, Focalin XR 15 mg and Periactin 4 mg b.i.d. from day 865, FIG. 6): began to gain weight
weight course ([3]; Patient B, Focalin XR 30 mg with Periactin, FIG. 6): continued to increase
weight course ([3]; Patient C, Concerta 36 mg and Periactin 4 mg b.i.d. from day 350, FIG. 8): began to gain weight
weight course ([3]; Patient D, Concerta 18 mg and Periactin 2 mg in the morning from day 23, FIG. 10): began to gain weight at an accelerated pace
weight course ([3]; Patient D, Concerta increased to 27 mg with Periactin): only a slight decrease in the ability of Patient D to continue to gain weight
height course ([3]; Patient D, combination of Concerta and Periactin, lagged initiation, FIG. 10): increased the growth rate
weight course ([3]; Patient E, Focalin XR 20 mg and Periactin 4 mg in the morning, FIG. 12): began to gain weight at an accelerated pace
pace of weight gain ([3]; Patient E, Periactin administered b.i.d. from day 836 with Focalin XR): increased
weight course ([3]; Patient F, Daytrana patch 30 mg and Periactin 2 mg b.i.d. from day 1547, FIG. 14): began to gain weight at an accelerated pace
pace of weight gain ([3]; Patient F, Periactin increased to 4 mg b.i.d. on day 1950 with Daytrana patch): increased
height course [3, 7]: began to gain height at an accelerated pace
weight course [3, 7]: continued to gain weight at a good pace
weight course ([3]; Patient H, Vvyanase 40 mg and Periactin 2 mg b.i.d. from day 109, FIG. 18): began to gain weight
appetite when the dose of the ADHD drug was increased ([3]; individual patient of the example (B, D, E, F) on Periactin): without a concomitant loss of appetite
time to reach peak plasma levels ([4]; after administration): 1 to 3 h
half-life ([4]; in vivo): 8 h
effect in children suffering from ADHD (anecdotal evidence) ([5]; ADHD drug (amphetamine or methylphenidate) plus 4-8 mg cyproheptadine at night (Daviss 2004)): weight gain and excessive sleep
effect on weight in studies ([5]; non-human animals or humans (Orthen-Gambill 1988)): weight gain
side effects ([5]; oral monotherapy for allergy): weight gain and drowsiness
